Assay [1] relates to 3T3-L1. The assay is described as follows: Anti-adipogenic activity against mouse 3T3-L1 cells at adipogenesis stage assessed as decrease in triglyceride level at 1 uM and measured upto 3 days by Oil Red O staining based spectroscopic analysis. Format: functional, cell-based. As to conditions: time <= 3.0 day.
Assay [2] concerns 3T3-L1. Kind of assay: Anti-adipogenic activity against mouse 3T3-L1 cells assessed as downregulation of PPARgamma mRNA expression level at 0.1 to 1 uM incubated for 24 hrs by RT-qPCR analysis. Format: functional, cell-based. As to conditions: dose 0.1-1 µM. (Real-time PCR tracks product formation cycle by cycle.)
The subject of assay [3] is Mus musculus. Kind of assay: In vivo inhibition of mTOR signalling in high fat diet-induced obese C57BL/6J mouse model assessed as decrease in mTOR phosphorylation at S2481 in inguen white adipose tissue at 40 mg/kg, ip administered every two days for 46 days by Western blot analysis. As to conditions: time 46.0 day. Format: functional, organism-based. On the technique in general: Immunoblotting shows a protein as a band on a membrane.

For assay [4], the system named is 3T3-L1. Kind of assay: Anti-adipogenic activity against mouse 3T3-L1 cells assessed as decrease in triglyceride level by Oil Red O staining based spectroscopic analysis. Format: functional, cell-based.
Assay [5] concerns Mus musculus. The assay is described as follows: Anti-obesity activity in high fat diet-induced obese C57BL/6J mouse assessed as decrease in body weight at 40 mg/kg, ip administered every two days for 46 days (Rvb=52.5%). On the set-up: scale not given: the % may be the effect or the level left. Format: functional. As to conditions: time 46 day.
In assay [6] the target is mTORC1 (Mus musculus) (UniProt Q9JLN9). The assay is described as follows: Inhibition of mTORC1 formation in siRNA mediated Raptor knockdown mouse 3T3-L1 cells assessed as decrease in S6K1 expression level at 10 uM incubated for 24 hrs by Western blot analysis. It is filed as cell-based.
Assay [7] shares this target. The assay is described as follows: Inhibition of mTORC1 formation in mouse 3T3-L1 cells assessed as decrease in S6K1 expression level at 10 uM incubated for 24 hrs by Western blot analysis. It is filed as cell-based.
Assay [8] deals with Mus musculus. Kind of assay: Anti-obesity activity in high fat diet-induced obese C57BL/6J mouse model assessed as increase in COX4 expression level in liver at 40 mg/kg, ip administered every two days for 46 days by immunohistochemical analysis. It is filed as functional, organism-based. As to conditions: time 46.0 day.
The test system of assay [9] is Mus musculus. Kind of assay: Anti-obesity activity in high fat diet-induced obese C57BL/6J mouse assessed as reduction in visceral fat content by measuring inguen white adipose tissue weight at 40 mg/kg, ip administered every two days for 46 days. Format: functional, organism-based. Particulars: time 46.0 day.
The target in assay [10] is Serine/threonine-protein kinase mTOR (Mus musculus) (UniProt Q9JLN9). The assay is described as follows: Inhibition of mTOR signalling in mouse 3T3-L1 cells assessed as upregulation of ATG3 expression level at 0.1 to 10 uM incubated for 24 hrs by Western blot analysis. Format: cell-based. As to conditions: dose 0.1-10 µM.
Assay [11] has the same target. The assay is described as follows: Inhibition of mTOR signalling in mouse 3T3-L1 cells assessed as upregulation of LC3II expression level at 0.1 to 10 uM incubated for 24 hrs by Western blot analysis. As to conditions: dose 0.1-10 µM. It is filed as cell-based.
Assay [12] deals with Mus musculus. Kind of assay: Anti-obesity activity in high fat diet-induced obese C57BL/6J mouse assessed as reduction in visceral fat content by measuring epididymis white adipose tissue weight at 40 mg/kg, ip administered every two days for 46 days. Format: functional, organism-based. Particulars: time 46.0 day.
The target in assay [13] is Regulatory-associated protein of mTOR (Mus musculus) (UniProt Q8K4Q0). Kind of assay: Binding affinity to Raptor in mouse 3T3-L1 cells assessed thermal stabilization at 10 uM incubated 30 mins by […] analysis.
Chain of Regulatory-associated protein of mTOR (Mus musculus) (Q8K4Q0 whole entry, looked up): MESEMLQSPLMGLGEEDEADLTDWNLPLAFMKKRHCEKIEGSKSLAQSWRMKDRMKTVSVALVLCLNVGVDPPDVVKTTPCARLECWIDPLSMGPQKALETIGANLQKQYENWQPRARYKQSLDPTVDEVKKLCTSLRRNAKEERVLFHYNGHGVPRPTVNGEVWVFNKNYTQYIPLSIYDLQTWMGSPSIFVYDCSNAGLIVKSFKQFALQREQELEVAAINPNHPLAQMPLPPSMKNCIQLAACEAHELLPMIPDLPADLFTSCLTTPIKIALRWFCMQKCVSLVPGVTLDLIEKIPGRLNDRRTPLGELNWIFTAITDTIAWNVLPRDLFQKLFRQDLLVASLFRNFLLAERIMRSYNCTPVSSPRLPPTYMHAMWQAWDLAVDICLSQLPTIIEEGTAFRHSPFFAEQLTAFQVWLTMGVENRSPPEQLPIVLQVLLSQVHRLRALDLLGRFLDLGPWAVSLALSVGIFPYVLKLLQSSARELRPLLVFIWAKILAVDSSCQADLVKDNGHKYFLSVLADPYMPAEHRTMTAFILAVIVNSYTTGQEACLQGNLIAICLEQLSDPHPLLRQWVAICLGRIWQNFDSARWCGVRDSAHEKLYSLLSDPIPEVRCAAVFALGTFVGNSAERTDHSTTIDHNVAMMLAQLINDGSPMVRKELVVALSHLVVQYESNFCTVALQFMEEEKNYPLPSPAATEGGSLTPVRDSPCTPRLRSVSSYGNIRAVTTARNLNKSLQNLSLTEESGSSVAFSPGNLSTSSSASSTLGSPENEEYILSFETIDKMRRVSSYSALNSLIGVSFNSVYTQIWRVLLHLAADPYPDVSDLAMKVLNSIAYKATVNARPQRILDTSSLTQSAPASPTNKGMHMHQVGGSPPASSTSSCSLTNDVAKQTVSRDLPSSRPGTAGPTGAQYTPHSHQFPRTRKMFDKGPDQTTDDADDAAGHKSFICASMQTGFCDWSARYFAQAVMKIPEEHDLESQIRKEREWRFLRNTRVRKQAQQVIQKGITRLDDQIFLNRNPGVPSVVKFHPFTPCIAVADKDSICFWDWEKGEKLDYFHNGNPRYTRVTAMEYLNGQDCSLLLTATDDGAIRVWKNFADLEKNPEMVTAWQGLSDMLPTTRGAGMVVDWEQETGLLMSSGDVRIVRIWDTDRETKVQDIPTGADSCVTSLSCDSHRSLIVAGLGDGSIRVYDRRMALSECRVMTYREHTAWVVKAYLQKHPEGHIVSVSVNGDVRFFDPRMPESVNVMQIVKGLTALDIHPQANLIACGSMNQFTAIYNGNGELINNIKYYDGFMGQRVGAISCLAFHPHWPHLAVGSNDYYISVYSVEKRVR
Assay [14] concerns the target mTORC1 (Mus musculus) (UniProt Q9JLN9). Kind of assay: Inhibition of mTORC1 formation in siRNA mediated Raptor knockdown mouse 3T3-L1 cells assessed as decrease in phosphorylaed-S6K1 expression level at 10 uM incubated for 24 hrs by Western blot analysis. Format: cell-based.

Calls of active or inactive are those of the source. No cut-off for these calls is given here.

As a reminder, the EC50 is the concentration giving half of the maximal effect.

Regarding `C=C(C)[C@@]12OC3(c4ccccc4)O[C@@H]1[C@@H]1[C@H](O)[C@](Cl)(COC(=O)c4ccccc4)[C@@H](O)[C@]4(O)C(=O)C(C)=C[C@H]4[C@@]1(O3)[C@H](C)[C@H]2OC(C)=O`, in the assay on 3T3-L1 [1], the outcome was inactive. Also, the outcome (with 3T3-L1 [2]; with Mus musculus [8]; in the assay with Mus musculus [9]; in the assay with Mus musculus [12]; in [13]) was Active. For the same compound, the inhibition entry (with Mus musculus [3]; on mTORC1 (Mus musculus) [6]; on mTORC1 (Mus musculus) [7]; in assay [10]; in [11]; on mTORC1 (Mus musculus) [14]) was “Active” throughout. Further, the EC50 in the assay with 3T3-L1 [4] stood at 97 nM. In addition, in the assay with Mus musculus [5], the Activity stood at 26.8%.

The values above are taken from ChEMBL document CHEMBL5380850, “Discovery of the First Raptor (Regulatory-Associated Protein of mTOR) Inhibitor as a New Type of Antiadipogenic Agent” (J Med Chem, 2023).
